According to US12358960B2, “Selective targeting of ubiquitin- and ubiquitin-like E1-activating enzymes by structurally-stabilized peptides” (Dana-Farber Cancer Institute, Inc., priority 2019, dated 2025):
Bridge positions count the residues as written; N and C are the ends. Square brackets hold non-standard residues; d marks the D form. Peptide text beside a SMILES is read from it. R8 = C=CCCCCCC[C@@](C)(N)C(=O)O; S5 = C=CCCC[C@](C)(N)C(=O)O; Nle = CCCC[C@H](N)C(=O)O

Assays:
[1] = molecular target: T1, native UBA1 (Homo sapiens, UniProt P22314); test: Streptavidin-biotin pull-down from HeLa cell lysate, western blot for UBA1; assay type: binding; conditions: biotinylated peptide
T1 construct: endogenous in cells; host or cells: HeLa cell lysate
T1 sequence (P22314 1-1058): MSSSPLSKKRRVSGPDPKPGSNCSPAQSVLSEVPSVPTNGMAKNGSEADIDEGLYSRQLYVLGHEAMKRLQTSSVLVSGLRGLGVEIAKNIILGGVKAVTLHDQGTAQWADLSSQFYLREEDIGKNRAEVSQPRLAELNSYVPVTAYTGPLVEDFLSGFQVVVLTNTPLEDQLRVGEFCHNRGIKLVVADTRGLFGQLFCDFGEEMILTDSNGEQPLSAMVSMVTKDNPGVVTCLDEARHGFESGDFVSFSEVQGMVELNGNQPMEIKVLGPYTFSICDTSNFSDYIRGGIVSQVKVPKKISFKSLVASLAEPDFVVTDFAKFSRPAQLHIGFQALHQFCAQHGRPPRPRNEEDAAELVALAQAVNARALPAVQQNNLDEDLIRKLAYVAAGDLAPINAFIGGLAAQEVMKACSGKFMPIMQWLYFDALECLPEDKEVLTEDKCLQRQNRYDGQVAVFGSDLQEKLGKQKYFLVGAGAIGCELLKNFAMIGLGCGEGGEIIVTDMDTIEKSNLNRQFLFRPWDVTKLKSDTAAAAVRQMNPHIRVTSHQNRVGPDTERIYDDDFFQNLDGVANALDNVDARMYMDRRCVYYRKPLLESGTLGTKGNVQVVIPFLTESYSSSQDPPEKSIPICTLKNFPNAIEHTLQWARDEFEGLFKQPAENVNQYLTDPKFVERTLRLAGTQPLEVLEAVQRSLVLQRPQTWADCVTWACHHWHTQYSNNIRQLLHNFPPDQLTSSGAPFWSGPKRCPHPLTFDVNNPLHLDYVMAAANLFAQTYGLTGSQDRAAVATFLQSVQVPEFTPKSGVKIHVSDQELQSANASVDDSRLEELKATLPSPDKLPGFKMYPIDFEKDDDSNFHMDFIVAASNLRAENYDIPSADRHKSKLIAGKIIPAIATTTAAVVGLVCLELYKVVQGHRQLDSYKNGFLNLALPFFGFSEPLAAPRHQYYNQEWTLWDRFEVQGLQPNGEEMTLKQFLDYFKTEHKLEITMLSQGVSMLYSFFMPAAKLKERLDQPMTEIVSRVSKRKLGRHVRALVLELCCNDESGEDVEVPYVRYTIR
Protocol: Streptavidin-biotin pull-down assays: For recombinant protein pull-downs, 10 pmol recombinant human UBA1 was incubated with 5 nmol C-terminally biotinylated SAH-UBE2A or DMSO vehicle control in a total volume of 1 mL binding buffer (50 mM NaCl, 20 mM HEPES, pH 7.4, 5 mM DTT) for 1.5 hours at 4° C. 30 μL of pre-equilibrated streptavidin agarose beads were then added and incubated for an additional 1.5 hours at 4° C. The beads were pelleted by centrifugation and washed three times with NP-40 buffer (20 mM HEPES, pH 7.4, 50 mM NaCl, 5 mM DTT, 0.5% [v/v] NP-40) before eluting the protein sample from the beads by heating at 70° C. for 10 min in 3×SDS loading buffer. Samples were subjected to electrophoresis and silver staining (Pierce 24612). […] Proteins were separated by SDS-PAGE gel electrophoresis and detected by western blot against UBE1 (Abcam ab34711). […] Conjugation of ubiquitin to E2 by E1 is monitored by conversion of free E2 (17 kDa) to E2˜ubiquitin conjugate (26 kDa). Quantitation of percent inhibition was calculated from densitometry of silver stain images. Error bars represent ±1 SEM calculated from three independent experiments.

[2] = molecular target: proteinase K (Parengyodontium album, UniProt P06873); test: in vitro; conditions: proteinase K (isolated protease) in Tris HCl buffer, pH 7.4
proteinase K, sequence (P06873 106-384): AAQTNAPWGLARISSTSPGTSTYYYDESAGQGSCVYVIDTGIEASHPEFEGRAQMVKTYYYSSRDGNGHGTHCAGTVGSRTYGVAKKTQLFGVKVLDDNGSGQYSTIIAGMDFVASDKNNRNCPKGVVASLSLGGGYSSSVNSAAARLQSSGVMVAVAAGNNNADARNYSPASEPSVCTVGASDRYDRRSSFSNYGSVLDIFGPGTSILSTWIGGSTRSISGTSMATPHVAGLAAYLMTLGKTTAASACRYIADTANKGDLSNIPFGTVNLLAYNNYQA
Protocol: Peptide Proteolysis Assay: In vitro proteolytic degradation was measured by LC/MS (Agilent 1200) using the following parameters: 20 μl injection, 0.6 mL flow rate, 20-min run time consisting of a gradient of water (0.1% formic acid) to 20%-80% acetonitrile (0.75% formic acid) over 15-min, 4-min wash to revert to starting gradient conditions, and 0.5-min post-time. The MSD set to scan mode with one channel at (M+2H)/2, ±1 mass units, one channel at (M+3H)/3, ±1 mass units, and the other at (M+4H)/4, ±1 mass units. Integration of each MSD signal yielded areas under the curve of >108 counts. Reaction samples were composed of 5 μl peptide in DMSO (1 mM stock) and 195 μl buffer consisting of 50 mM Tris HCl, pH 7.4. Upon injection of the zero time sample, 6 μl of 20 ng/μL proteinase K (New England Biolabs) was added, and the amount of intact peptide quantitated by serial injection over time. A plot of MSD area versus time yielded an exponential decay curve, and half-lives were determined by nonlinear regression analysis using Prism software (GraphPad).

Question: `CCCC[C@H](NC(C)=O)C(=O)N[C@@H](CO)C(=O)N[C@H](C(=O)N1CCC[C@H]1C(=O)N[C@]1(C)CCCCCCC=CCCC[C@@](C)(C(=O)N[C@@H](Cc2ccccc2)C(=O)N[C@@H](CCCCN)C(=O)N[C@@H](CCCNC(=N)N)C(=O)N[C@@H](CC(C)C)C(=O)N[C@@H](CCC(N)=O)C(N)=O)NC(=O)[C@H](CCCNC(=N)N)NC(=O)[C@H](CCCC)NC(=O)[C@H](CC(C)C)NC(=O)[C@H](CCCNC(=N)N)NC(=O)[C@H](CCCNC(=N)N)NC(=O)[C@H](CCCNC(=N)N)NC1=O)[C@@H](C)O` [SAH-UBE2A-11, BSTPX1RRRLBRX2FKRLQ] (Ac-[Nle]STP[R8]RRRL[Nle]R[S5]FKRLQ-NH2; staple 5-12) was tested. Which “direct binding to native UBA1 in HeLa cell lysate” value [1] did it give?
Answer: direct binding of SAH-UBE2A to native UBA1

Question: What about the half-life at 25 µM [2] of the same compound?
Answer: > 6 h
